# According to paper PMC10693528, “A high-throughput metabolomics in vitro platform for the characterization of hepatotoxicity” (Cell Biology and Toxicology, 2023):
# Where “and” joins values, the source holds several entries; their conditions need not be identical. Equal values may be shown once.
# Key:
# HepG2 cells [1] = test: LC-MS/MS targeted intracellular metabolomics; format: cell-based, human; conditions: Suppl Fig 9; C3 (EC15 ATP), 48 h; Bezafibrate lines = Plates 1-6 in order
# Protocol: Metabolite profiling of cells was performed directly in the same 96-well plate according to a standardized protocol described below. In order to prevent any interaction with the cell material, the automatic sampler was adjusted to pick up the sample from the supernatant at a specified depth avoiding the contact with the bottom of the plate.
# After the initial quenching step (50 μL isopropanol 80%), additional 70 μL of isopropanol 80%, containing internal standards (methionine-D3, tryptophan-D5, arginine-13C6-15N4, Boc-Ala-Gly-Gly-Gly-OH, coenzyme Q1, coenzyme Q2, coenzyme Q4) were added to each well. The internal standards were used for quality control by visual inspection (signal intensity, peak shape, retention time); they were not used for normalization. Afterwards, plates were shaken for 5 min, 750 rpm at 20 °C, and placed for 30 s in the ultrasonic device. Then, the plates were centrifugated for 10 min, at 5485 g, 15 °C. Further, 2.5 μL of the extract were injected each for reversed-phase and hydrophilic interaction liquid chromatography followed by MS/MS detection (AB Sciex QTrap 6500+) using the positive and negative ionization mode. For reverse-phase high-performance liquid chromatography (RP-HPLC, Ascentis Express C18, 5 cm × 2.1 mm, 2.7 μm Supelco), gradient elution was performed with mobile phase A, water/methanol/0.1 M ammonium formate (1:1:0.02, w/w), and B, methyl-tert-butylether/2-propanol/methanol/0.1 M ammonium formate/formic acid (4:2:1:0.07:0.035, w/w) 5.9 min linear gradient: 0 min 100% A, 0.5 min 75% A, 5.9 min 10% A; followed by 0% A until 6.7 min; re-equilibration at 100% A until 7.7 min; flow rate 600 μL/min; column temperature 40 °C HILIC (ZIC-HILIC, 2.1 × 100 mm, 3.5 μm, Supelco) gradient elution was performed with mobile phase C, acetonitrile/water (99:1, v/v) with 0.2% (v) acetic acid, and D, 7 mM ammonium acetate with 0.2% (v) acetic acid (5.0 min linear gradient: 0 min 100% C, 5 min 10% C; followed by a linear gradient back to 100%C until 6.5 min; re-equilibration at 100% C until 7.5 min; flow rate 600 μL/min; column temperature 40 °C.). Two LC-MS systems with identical configuration were used for the analysis. Normalization to lyophilized reference samples (see below) was used to compensate for variation from between analytical batches. The efficiency of this normalization procedure was checked by principal component analysis (PCA), confirming that Pool samples from different analytical batches clustered together.
# Reference samples derived from lyophilized untreated HepG2 cells (technical control samples) were measured in parallel throughout the entire analytical process. Data were normalized against the median of these lyophilized HepG2 cells reference samples, to give normalized ratios (performed for each sample per metabolite). This compensated for inter- and intra-instrumental variation. To correct for small differences in cell numbers within and between different treatment groups, data were also normalized to the within sample median, as described in detail by (Ramirez et al. [2018]). For intracellular metabolomic analysis, the median of each sample was calculated across all the 221 measured metabolites.
# To generate metabolic profiles for the different treatments, heteroscedastic t test (Welch test) was applied to log-transformed normalized metabolite data to compare treated groups with their respective controls.
# Principal component analysis (PCA) and hierarchical clustering (HCA) analyses were performed using R software environment (https://www.r-project.org/). PCA was conducted using the ropls package (Thévenot et al. [2015]) with log10-transformed input data and standard scaling. HCA was performed using the pvclust package (Suzuki et al. [2019]), (https://CRAN.R-project.org/package=pvclust). Input: log10(Ratio), clustering method: Ward D2, distance method: Manhattan, bootstrapping: 10000 times.
# [2] = Cell viability (ATP, CellTiter-Glo) in parallel with metabolomics experiments; conditions: human, HepG2 cells, Percentage of viability (ATP) compared to the vehicle control, Bezafibrate positive control, Bezafibrate 1000 μM, 48 h, one value per experiment plate, n = 6
# Protocol: (§1) HepG2 cells (ECACC, UK, maximum passage number 9) were maintained and grown on Dulbecco’s MEM media supplemented with 1% v/v of penicillin/streptomycin, L-glutamine (200 mM, 1% v/v), non-essential amino acids (100x, 1% v/v), and 10% FBS (PAN-Biotech, Aidenbach, Germany) in 75 cm^2 culture flasks (TPP, Switzerland). For cell passaging (~ 80% confluency) media was removed and cells were washed twice with pre-warmed calcium and magnesium free Dulbecco’s PBS (PAN-Biotech, Aidenbach, Germany). Trypsin was used for cell detachment. Then, 20 mL culture medium was added, and single-cell suspensions were obtained by passing the suspension through a Combitip (Eppendorf, Germany). A fraction of the cell suspension was then transferred to a new culture vessel. For experiments, 15,000 cells per well (passage 5-9) were seeded in 96-well flat-bottom plates (TPP, Switzerland) and incubated for 24 h for cell attachment (37 °C and 5% CO^2). Afterwards, culture media were exchanged, test substances applied, and plates incubated for 48 h (37 °C and 5% CO^2).
# (§2) For each substance, one 96-well plate was set up with 6 replicates per concentration, 12 replicates for vehicle controls (yielding a final concentration of 0.5% DMSO in the well), 6 replicates for positive controls (Bezafibrate 1000 μM), and 6 replicates for blank controls (media without cells). To minimize potential evaporation, the outer rows and columns of the plate were omitted and filled with PBS instead. Reference samples prepared from lyophilized HepG2 cells were measured in parallel throughout the entire analytical process (technical replicates). […] Lyophilized HepG2 cells reference samples were used to account for variability between plates and in concentration series for linearity checks. After 48 h, the assays were stopped by washing the wells once with 100 μL 0.9% NaCl followed by snap freezing the plates on liquid nitrogen for 5 s. Plates were placed immediately on dry ice and 50 μL ice-cooled isopropanol 80% (v/v) were added to quench metabolism and precipitate proteins. Plates were stored at − 80 °C until LC/ MS analysis.
# HepG2 cells [3] = test: as above; conditions: Bezafibrate 1000 μM, 48 h, one value per experiment plate, n = 6
# Protocol: as §1, §2
structure (smiles),measurement,setting,value
CC(C)(Oc1ccc(CCNC(=O)c2ccc(Cl)cc2)cc1)C(=O)O [Bezafibrate],5-Hydroxytryptophan level vs controls,HepG2 cells [1],0.84 and 0.77 and 0.76 and 0.85 and 0.74 and 0.65
same,Carnitine level vs controls,HepG2 cells [1],0.72 and 0.74 and 0.84 and 0.77 and 0.80
same,Ceramide (d18:1.C20:0) level vs controls,HepG2 cells [1],0.63 and 0.66 and 0.56 and 0.62 and 0.64 and 0.59
same,Ceramide (d18:1.C24:1) level vs controls,HepG2 cells [1],0.66 and 0.91 and 0.98 and 0.80 and 0.85 and 0.68
same,Ceramide (d18:1.C24:2) level vs controls,HepG2 cells [1],0.83 and 1.08 and 1.11 and 0.89 and 0.90 and 0.91
same,Ceramide (d18:2.C24:1) level vs controls,HepG2 cells [1],0.56 and 0.62 and 0.68 and 0.89 and 0.63
same,Choline plasmalogen (C36:4) level vs controls,HepG2 cells [1],0.65 and 0.80 and 0.68 and 0.69 and 0.73 and 0.72
same,Choline plasmalogen (C36:5) level vs controls,HepG2 cells [1],0.78 and 0.90 and 0.80 and 0.83 and 0.82 and 0.79
same,Creatine level vs controls,HepG2 cells [1],0.80 and 0.82 and 0.73 and 0.78 and 0.67 and 0.66
same,Glycerol-3-phosphate level vs controls,HepG2 cells [1],0.68 and 0.43 and 0.45 and 0.54 and 0.44 and 0.39
same,Hexanoylcarnitine level vs controls,HepG2 cells [1],0.65 and 0.54 and 0.50 and 0.59 and 0.62
same,Ketoleucine level vs controls,HepG2 cells [1],0.73 and 0.72 and 0.74 and 0.77 and 1.10
same,Lysophosphatidylcholine (C14:0) level vs controls,HepG2 cells [1],2.27 and 1.82 and 2.09 and 1.97 and 1.85 and 1.87
same,Lysophosphatidylcholine (C16:0) level vs controls,HepG2 cells [1],1.86 and 1.92 and 1.98 and 2.08 and 1.93 and 2.14
same,Lysophosphatidylcholine (C16:1) level vs controls,HepG2 cells [1],1.95 and 2.13 and 2.01 and 2.17 and 1.86 and 1.72
same,Lysophosphatidylcholine (C20:4) level vs controls,HepG2 cells [1],1.22 and 1.67 and 1.47 and 1.90 and 1.86 and 1.44
same,Lysophosphatidylcholine (C24:0) level vs controls,HepG2 cells [1],1.01 and 1.18 and 1.11 and 1.20 and 1.21 and 1.29
same,Lysophosphatidylcholine (C24:1) level vs controls,HepG2 cells [1],1.10 and 1.03 and 1.13 and 1.26 and 1.12
same,Lysophosphatidylethanolamine (C16:0) level vs controls,HepG2 cells [1],2.47 and 2.37 and 2.23 and 2.12 and 2.10 and 2.19
same,Lysophosphatidylethanolamine (C18:0) level vs controls,HepG2 cells [1],2.21 and 2.07 and 1.76 and 1.77 and 2.04
same,Lysophosphatidylethanolamine (C18:1) level vs controls,HepG2 cells [1],2.45 and 2.31 and 1.97 and 2.19 and 2.11 and 2.16
same,N-Acetylaspartate level vs controls,HepG2 cells [1],1.54 and 1.49 and 1.66 and 1.48 and 1.41 and 1.25
same,Pantothenic acid level vs controls,HepG2 cells [1],0.68 and 0.77 and 0.59 and 0.72 and 0.70 and 0.76
same,Phosphatidylcholine (C32:0) level vs controls,HepG2 cells [1],0.82 and 0.70 and 0.79 and 0.88 and 0.83 and 0.76
same,Phosphatidylcholine (C34:1) level vs controls,HepG2 cells [1],0.83 and 0.75 and 0.78 and 0.82 and 0.74
same,Phosphatidylcholine (C34:3) level vs controls,HepG2 cells [1],1.02 and 1.18 and 1.17 and 1.09 and 1.15 and 1.04
same,Phosphatidylcholine (C36:1) level vs controls,HepG2 cells [1],0.86 and 0.88 and 0.73 and 0.84 and 0.79 and 0.90
same,Phosphatidylcholine (C36:2) level vs controls,HepG2 cells [1],0.66 and 0.71 and 0.62 and 0.69 and 0.65
same,Phosphatidylcholine (C36:3) level vs controls,HepG2 cells [1],0.90 and 1.03 and 0.84 and 0.96 and 0.97 and 0.89
same,Phosphatidylcholine (C36:4) level vs controls,HepG2 cells [1],1.00 and 0.93 and 0.81 and 0.98 and 0.95 and 0.94
same,Phosphatidylcholine (C36:5) level vs controls,HepG2 cells [1],0.78 and 0.81 and 0.63 and 0.76 and 0.72 and 0.75
same,Phosphatidylethanolamine (C36:3) level vs controls,HepG2 cells [1],0.90 and 0.87 and 0.84
same,Phosphatidylethanolamine (C38:3) level vs controls,HepG2 cells [1],0.72 and 0.70 and 0.64 and 0.75 and 0.68 and 0.66
same,Phosphatidylethanolamine (C38:5) level vs controls,HepG2 cells [1],0.90 and 1.00 and 0.86 and 0.98 and 0.87
same,Phosphatidylethanolamine (C38:6) level vs controls,HepG2 cells [1],0.92 and 0.91 and 0.95 and 1.01 and 0.98
same,Phosphatidylethanolamine (C40:7) level vs controls,HepG2 cells [1],0.79 and 0.81 and 0.75 and 0.88 and 0.82
same,Phosphocholine level vs controls,HepG2 cells [1],0.78 and 0.69 and 0.56 and 0.63
same,Propionylcarnitine level vs controls,HepG2 cells [1],0.66 and 0.78 and 0.40 and 0.58 and 0.54 and 0.57
same,S-Adenosylhomocysteine level vs controls,HepG2 cells [1],0.92 and 0.98 and 0.70 and 0.93 and 0.78 and 0.79
same,Sphingomyelin (d32:2) level vs controls,HepG2 cells [1],0.49 and 0.71 and 0.69 and 0.75 and 0.59 and 0.78
same,Sphingomyelin (d33:1) level vs controls,HepG2 cells [1],1.19 and 1.34 and 1.15 and 1.32 and 1.18 and 1.20
same,Sphingomyelin (d34:0) level vs controls,HepG2 cells [1],0.96 and 1.09 and 1.25 and 1.15 and 1.11
same,Sphingomyelin (d35:1) level vs controls,HepG2 cells [1],0.86 and 0.95 and 0.88 and 0.85 and 0.92
same,Sphingomyelin (d36:1) level vs controls,HepG2 cells [1],0.86 and 0.96 and 0.90 and 0.82 and 0.84
same,Sphingomyelin (d36:2) level vs controls,HepG2 cells [1],0.73 and 0.90 and 0.85 and 0.87 and 0.88
same,Sphingomyelin (d37:1) level vs controls,HepG2 cells [1],0.70 and 0.80 and 0.79 and 0.76
same,Sphingomyelin (d38:1) level vs controls,HepG2 cells [1],0.88 and 0.84 and 0.85 and 0.87 and 0.91
same,Sphingomyelin (d38:2) level vs controls,HepG2 cells [1],0.61 and 0.66 and 0.64 and 0.67 and 0.71
same,Sphingomyelin (d39:1) level vs controls,HepG2 cells [1],0.77 and 0.83 and 0.87 and 0.81 and 0.86
same,Sphingomyelin (d40:2) level vs controls,HepG2 cells [1],0.73 and 0.83 and 0.81 and 0.87 and 0.78 and 0.84
same,Sphingomyelin (d41:2) level vs controls,HepG2 cells [1],0.78 and 0.79 and 0.82 and 0.88 and 0.77 and 0.80
same,Sphingomyelin (d42:2) level vs controls,HepG2 cells [1],0.86 and 0.95 and 0.81 and 0.98 and 0.89 and 0.91
same,Taurine level vs controls,HepG2 cells [1],0.93 and 0.92 and 0.68 and 0.90 and 0.88
same,Triacylglycerol (C34:1.C18:3) level vs controls,HepG2 cells [1],1.57 and 2.06 and 2.37 and 1.58 and 1.93 and 2.00
same,Triacylglycerol (C34:2.C18:0) level vs controls,HepG2 cells [1],1.63 and 1.54 and 1.78 and 1.17 and 1.31 and 1.39
same,Triacylglycerol (C34:2.C18:1) level vs controls,HepG2 cells [1],1.40 and 1.62 and 1.81 and 1.26 and 1.79 and 1.43
same,Triacylglycerol (C36:4.C16:0) level vs controls,HepG2 cells [1],1.74 and 2.34 and 2.73 and 1.73 and 1.97 and 2.11
same,Triacylglycerol (C36:4.C18:0) level vs controls,HepG2 cells [1],1.72 and 1.82 and 2.28 and 2.15 and 2.38 and 2.26
same,"viability at 48 h, 1000 μM",[2],71 to 84%
same,"Percentage of viability (ATP) compared to the vehicle control, Bezafibrate positive control",HepG2 cells [3],84.1 ± 2.3% and 76.3 ± 3.2% and 75.0 ± 1.5% and 71.8 ± 2.8% and 78.0 ± 0.7% and 79.3 ± 2.2%
